Test results: patent US20260308185A1, “STAT DEGRADERS AND USES THEREOF” (Recludix Pharma, Inc., priority 2023, published 2026)

Key:
[1] = target: T1, Recombinant STAT3 protein (STAT3(G127-I722)) (Homo sapiens, UniProt P40763); assay: STAT3 Fluorescence Polarization (FP) Assay; type: binding; conditions: 25 nM STAT3(G127-I722), 2 nM 5-FAM-GpYLPQTV-NH2 probe, pH 7.4, 45-minute incubation at room temperature
T1 construct: Recombinant STAT3 protein (STAT3(G127-I722))
Method: An FP assay was developed to determine IC50 values for test substances. Recombinant STAT3 protein (STAT3(G127-I722)) at 25 nM was combined with a fluorescently labeled, phosphotyrosine peptide probe (5-FAM-GpYLPQTV-NH2) at 2 nM in FP buffer (10 mM HEPES pH 7.4, 50 mM NaCl. 1 mM EDTA, 0.05% Tween 20, 2 mM DTT). 50 μL of STAT3-probe mixture was added to serial diluted compounds in black, 96-well plates (Greiner BioOne 655076) to a final concentration of 1% DMSO. Reaction components were mixed, and FP was measured after 45-minute incubation at room temperature using a Tecan Spark multimode plate reader. FP signal (mP) was plotted against the log concentration of the test substances and IC50 values were calculated by nonlinear regression analysis using GraphPad Prism software. For STAT3 FP assay, A=≤100 nM; B=>100-1000 nM; C=>1-10 μM; and D=>10 μM.

[2] = target: T2, Recombinant STAT6 protein (STAT6(W123-T658)) (Homo sapiens, UniProt P42226); assay: STAT6 Fluorescence Polarization (FP) Assay; type: binding; conditions: 250 nM STAT6(W123-T658), 2 nM 5-FAM-Ap[…]-NH2 probe, pH 7.4, 45-minute incubation at room temperature
T2 construct: Recombinant STAT6 protein (STAT6(W123-T658))
T2 sequence (P42226 123-658): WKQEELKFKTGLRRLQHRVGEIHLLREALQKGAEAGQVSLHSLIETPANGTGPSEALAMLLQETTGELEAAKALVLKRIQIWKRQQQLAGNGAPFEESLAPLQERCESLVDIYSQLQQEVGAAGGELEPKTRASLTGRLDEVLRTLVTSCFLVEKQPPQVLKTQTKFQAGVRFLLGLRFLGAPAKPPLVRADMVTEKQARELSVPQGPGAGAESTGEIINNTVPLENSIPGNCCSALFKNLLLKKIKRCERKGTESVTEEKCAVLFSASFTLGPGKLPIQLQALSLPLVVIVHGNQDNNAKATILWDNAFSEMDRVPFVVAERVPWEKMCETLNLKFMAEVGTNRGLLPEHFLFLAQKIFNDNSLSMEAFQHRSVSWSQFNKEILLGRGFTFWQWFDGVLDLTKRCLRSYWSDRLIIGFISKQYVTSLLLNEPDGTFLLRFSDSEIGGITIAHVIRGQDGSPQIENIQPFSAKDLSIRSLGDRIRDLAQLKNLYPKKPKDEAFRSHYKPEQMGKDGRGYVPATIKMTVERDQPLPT
Method: An FP assay was developed to determine IC50 values for test substances. Recombinant STAT6 protein (STAT6(W123-T658)) at 250 nM was combined with a fluorescently labeled, phosphotyrosine peptide probe (5-FAM-Ap[…]-NH2) at 2 nM in FP buffer (10 mM HEPES pH 7.4, 50 mM NaCl, 1 mM EDTA, 0.05% Tween 20, 2 mM DTT). 50 μL of STAT6-probe mixture was added to serial diluted compounds in black, 96-well plates (Greiner BioOne 655076) to a final concentration of 1% DMSO. Reaction components were mixed, and FP w as measured after 45-minute incubation at room temperature using a Tecan Spark multimode plate reader. FP signal (mP) was plotted against the log concentration of the test substances and IC50 values were calculated by nonlinear regression analysis using GraphPad Prism software. For STAT6 FP assay. A=≤300 nM; B=>300-3000 nM; C=>3-30 μM; and D=>30 μM.

[3] = test system: pSTAT3 (pY705-STAT3) in PBMC; assay: MSD-pSTAT-PBMC Assay (pSTAT3); type: cell-based; conditions: compound 3 hrs, then 10 ng/mL IL-6 for 10 min
Excerpt: (§1) Cryopreserved Peripheral Blood Mononuclear Cells (PBMC) are from AllCells. Recombinant Human […] and IL-6 are from Peprotech. Mouse monoclonal anti-STAT3 antibody, rabbit monoclonal anti-pY705-STAT3 antibody, rabbit monoclonal Anti-pY641-STAT6 antibody, and lysis buffer are from Cell Signaling Technology (CST). Mouse monoclonal anti-STAT6 antibody is from BioLegend. Assay plates, blocker, and anti-rabbit secondary antibody are from Meso Scale Discovery (MSD).
(§2) Cryopreserved PBMCs were thawed out and allowed to recover overnight in IMDM+10% heat-inactivated FBS prior to plating 50,000 (STAT3) or 25,000 (STAT6) cells per well in 96-well U-bottom tissue culture plates. Cells were treated with compound for 3 hrs, then stimulated with 10 ng/mL IL-6 (STAT3) or 1 ng/mL IL-4 (STAT6) for 10 min. Cells were then spun down and washed with ice-cold PBS prior to lysing the cell pellet with 1× lysis buffer (CST) with 1× HALT protease and phosphatase inhibitor cocktail (Thermo). Lysates were transferred to and incubated overnight at 4° C. with shaking in QuickPlex 96-well high bind assay plates (MSD) pre-coated overnight with 30 μL per well of 0.6 μg/mL mouse monoclonal anti-STAT3 antibody (STAT3) or 2 μg/mL mouse monoclonal anti-STAT6 antibody (STAT6) in 1×PBS, and pre-blocked for 1 hour with 3% Blocker-A (MSD). Captured protein in the assay plates were then washed and probed with 25 μL per well of 0.25 μg/ml rabbit monoclonal anti-pY705-STAT3 antibody (STAT3) or 0.18 μg/ml rabbit monoclonal Anti-pY641-STAT6 antibody (STAT6) in 1% Blocker-A for 1 hour at room temperature with shaking, then washed and probed with 25 ul per well of 1 ug/ml Sulfo-TAG Labeled Goat Anti-Rabbit Antibody (MSD) in 1% Blocker-A for 1 hour at room temperature with shaking. Assay plates were then washed and 150 μL of 1× Read Buffer-T (MSD) was added to each well prior to reading on an SQ120 MSD Plate Reader. Assay signal from each sample was subtracted by the signal from unstimulated control wells and normalized to DMSO control wells, IC50 values were calculated using Graph Pad Prism Dose-Response Nonlinear Regression with variable slope. For both pSTAT3 and pSTAT6 A=≤100 nM; B=>100-1000 nM; C=>1000-3000 nM; and D=>3 μM.

[4] = test system: pSTAT6 (pY641-STAT6) in PBMC; assay: MSD-pSTAT-PBMC Assay (pSTAT6); type: cell-based; conditions: compound 3 hrs, then 1 ng/mL IL-4 for 10 min
Excerpt: as §1, §2

T1 sequence (P40763 127-722): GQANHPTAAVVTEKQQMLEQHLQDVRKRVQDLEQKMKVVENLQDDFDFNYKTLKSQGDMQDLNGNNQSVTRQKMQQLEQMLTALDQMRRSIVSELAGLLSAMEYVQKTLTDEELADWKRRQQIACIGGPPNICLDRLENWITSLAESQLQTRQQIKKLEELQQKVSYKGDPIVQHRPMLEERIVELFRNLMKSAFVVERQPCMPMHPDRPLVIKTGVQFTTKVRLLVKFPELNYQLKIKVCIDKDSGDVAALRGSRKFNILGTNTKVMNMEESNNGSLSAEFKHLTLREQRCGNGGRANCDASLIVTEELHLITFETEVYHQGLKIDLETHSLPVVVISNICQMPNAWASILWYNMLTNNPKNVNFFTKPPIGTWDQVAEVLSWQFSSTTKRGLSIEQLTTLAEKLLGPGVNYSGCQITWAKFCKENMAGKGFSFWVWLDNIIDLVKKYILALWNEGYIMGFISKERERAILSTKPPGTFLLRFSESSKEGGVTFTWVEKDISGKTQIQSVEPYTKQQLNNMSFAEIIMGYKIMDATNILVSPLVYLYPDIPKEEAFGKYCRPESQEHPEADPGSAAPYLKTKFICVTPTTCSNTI

## CN(CCOc1ccc(C2CCC(=O)NC2=O)cc1)c1ccncc1C1CN(C(=O)[C@@H]2CC[C@@H]3C[C@H]4C[C@H]4C[C@H](NC(=O)c4cc5cc(C(F)(F)P(=O)(O)O)ccc5s4)C(=O)N32)C1 (stereo partly drawn) [Compound 11, ((2-(((3S,6S,7aS,8aR,9aR)-3-(3-(4-((2-(4-(2,6-dioxopiperidin-3-yl)phenoxy)ethyl)(methyl)amino)pyridin-3-yl)azetidine-1-carbonyl)-5-oxodecahydro-1H-cyclopropa[d]pyrrolo[1,2-a]azocin-6-yl)carbamoyl)benzo[b]thiophen-5-yl)difluoromethyl)phosphonic acid]
[1]
  IC50: < 100 nM
[2]
  IC50: 3000 to 30000 nM
[3]
  IC50: > 3000 nM

## CCCC(=O)SCCOP(=O)(OCCSC(=O)CCC)C(F)(F)c1ccc2sc(C(=O)NC3CC4CC4CC4CCC(C(=O)N5CC(c6cnccc6N(C)CCOc6ccc(C7CCC(=O)NC7=O)cc6)C5)N4C3=O)cc2c1 [Compound 12, S,S′-(((((2-(((3S,6S,7aS,8aR,9aR)-3-(3-(4-((2-(4-(2,6-dioxopiperidin-3-yl)phenoxy)ethyl)(methyl)amino)pyridin-3-yl)azetidine-1-carbonyl)-5-oxodecahydro-1H-cyclopropa[d]pyrrolo[1,2-a]azocin-6-yl)carbamoyl)benzo[b]thiophen-5-yl)difluoromethyl)phosphoryl)bis(oxy))bis(ethane-2,1-diyl)) dibutanethioate]
[3]
  IC50: < 100 nM

## CCCC(=O)SCCOP(=O)(OCCSC(=O)CCC)C(F)(F)c1ccc2sc(C(=O)N[C@H]3C[C@@H]4C[C@@H]4C[C@H]4CCC(C(=O)N5CC(c6cnccc6N6CCN(C(=O)COc7ccc(C8CCC(=O)NC8=O)cc7)CC6)C5)N4C3=O)cc2c1 (stereo partly drawn) [Compound 22, S,S′-(((((2-(((3S,6S,7aS,8aR,9aR)-3-(3-(4-(4-(2-(4-(2,6-dioxopiperidin-3-yl)phenoxy)acetyl)piperazin-1-yl)pyridin-3-yl)azetidine-1-carbonyl)-5-oxodecahydro-1H-cyclopropa[d]pyrrolo[1,2-a]azocin-6-yl)carbamoyl)benzo[b]thiophen-5-yl)difluoromethyl)phosphoryl)bis(oxy))bis(ethane-2,1-diyl)) dibutanethioate]
[3]
  IC50: < 100 nM

## O=C1CCC(N2Cc3c(C#CCCCCCC(=O)NC4(c5ccccn5)CN(C(=O)[C@@H]5CC[C@@H]6C[C@H]7C[C@H]7C[C@H](NC(=O)c7cc8cc(C(F)(F)P(=O)(O)O)ccc8s7)C(=O)N65)C4)cccc3C2=O)C(=O)N1 (stereo partly drawn) [Compound 1, ((2-(((3S,6S,7aS,8aR,9aR)-3-(3-(8-(2-(2,6-dioxopiperidin-3-yl)-1-oxoisoindolin-4-yl)oct-7-ynamido)-3-(pyridin-2-yl)azetidine-1-carbonyl)-5-oxodecahydro-1H-cyclopropa[d]pyrrolo[1,2-a]azocin-6-yl)carbamoyl)benzo[b]thiophen-5-yl)difluoromethyl)phosphonic acid]
[1]
  IC50: < 100 nM
[2]
  IC50: 3000 to 30000 nM
[3]
  IC50: > 3000 nM

## CCCC(=O)SCCOP(=O)(OCCSC(=O)CCC)C(F)(F)c1ccc2sc(C(=O)NC3CC4CC4CC4CCC(C(=O)N5CC(NC(=O)CCCCCC#Cc6cccc7c6CN(C6CCC(=O)NC6=O)C7=O)(c6ccccn6)C5)N4C3=O)cc2c1 [Compound 2, S,S′-(((((2-(((3S,6S,7aS,8aR,9aR)-3-(3-(8-(2-(2,6-dioxopiperidin-3-yl)-1-oxoisoindolin-4-yl)oct-7-ynamido)-3-(pyridin-2-yl)azetidine-1-carbonyl)-5-oxodecahydro-1H-cyclopropa[d]pyrrolo[1,2-a]azocin-6-yl)carbamoyl)benzo[b]thiophen-5-yl)difluoromethyl)phosphoryl)bis(oxy))bis(ethane-2,1-diyl)) dibutanethioate]
[4]
  IC50: > 3000 nM
[3]
  IC50: < 100 nM

## O=C1CCC(N2Cc3c(OCCOCCOCCn4ccc([C@@H]5CN(C(=O)[C@@H]6CC[C@@H]7C[C@H]8C[C@H]8C[C@H](NC(=O)c8cc9cc(C(F)(F)P(=O)(O)O)ccc9s8)C(=O)N76)C6(CC6)C5)cc4=O)cccc3C2=O)C(=O)N1 (stereo partly drawn) [Compound 17, ((2-(((3S,6S,7aS,8aR,9aR)-3-((6R)-6-(1-(2-(2-(2-((2-(2,6-dioxopiperidin-3-yl)-1-oxoisoindolin-4-yl)oxy)ethoxy)ethoxy)ethyl)-2-oxo-1,2-dihydropyridin-4-yl)-4-azaspiro[2.4]heptane-4-carbonyl)-5-oxodecahydro-1H-cyclopropa[d]pyrrolo[1,2-a]azocin-6-yl)carbamoyl)benzo[b]thiophen-5-yl)difluoromethyl)phosphonic acid]
[4]
  IC50: > 3000 nM
[1]
  IC50: 1000 to 10000 nM
[2]
  IC50: 300 to 3000 nM

## N#CC1CN(C(=O)C2CCC3CC4CC4CC(NC(=O)c4cc5cc(C(F)(F)P(=O)(O)O)ccc5s4)C(=O)N32)CC1c1cccc(N2CCN(c3ccc4c(c3)[nH]c(=O)n4C3CCC(=O)NC3=O)CC2)c1 [Compound 13, ((2-(((3S,6S,7aS,8aR,9aR)-3-((rel-3S,4R)-3-cyano-4-(3-(4-(1-(2,6-dioxopiperidin-3-yl)-2-oxo-2,3-dihydro-1H-benzo[d]imidazol-5-yl)piperazin-1-yl)phenyl)pyrrolidine-1-carbonyl)-5-oxodecahydro-1H-cyclopropa[d]pyrrolo[1,2-a]azocin-6-yl)carbamoyl)benzo[b]thiophen-5-yl)difluoromethyl)phosphonic acid]
[4]
  IC50: 100 to 1000 nM
[1]
  IC50: 100 to 1000 nM
[2]
  IC50: < 300 nM

## N#CC1CN(C(=O)C2CCC3CC4CC4CC(NC(=O)c4cc5cc(C(F)(F)P(=O)(O)O)ccc5s4)C(=O)N32)CC1c1cccc(OCCCCOc2ccc(C3CCC(=O)NC3=O)cc2)c1 [Compound 3, ((2-(((3S,6S,7aS,8aR,9aR)-3-((rel-3S,4R)-3-cyano-4-(3-(4-(4-(2,6-dioxopiperidin-3-yl)phenoxy)butoxy)phenyl)pyrrolidine-1-carbonyl)-5-oxodecahydro-1H-cyclopropa[d]pyrrolo[1,2-a]azocin-6-yl)carbamoyl)benzo[b]thiophen-5-yl)difluoromethyl)phosphonic acid]
[4]
  IC50: > 3000 nM
[1]
  IC50: 1000 to 10000 nM
[2]
  IC50: 300 to 3000 nM
